We go through one compound from US20250389728A1, “NOVEL CLASS OF TRIOXANE-BASED MS-CLEAVABLE CROSS-LINKERS TO ADVANCE PROTEIN-PROTEIN INTERACTION STUDIES USING CROSS-LINKING MASS SPECTROMETRY” (The Regents of the University of California, priority 2024, published 2025).

For one test, the system named is human 26S proteasomes. The test can be described thus: TSTO cross-linking of affinity-purified 26S proteasomes, LC-MSn. How it is done: Cross-linked proteins were then digested in 8M urea buffer using LysC for 4 h at 37° C., followed by trypsin digestion at 37° C. overnight after diluting urea concentration to <1.5 M. The resulting peptide mixtures were extracted and desalted using C18 tips (Agilent) prior to MS analyses.
LC-MS^n analysis. LC-MS^n analysis of cross-linked peptides was performed using an UltiMate 3000 UPLC (Thermo Fisher Scientific) liquid chromatograph coupled on-line to an Orbitrap Fusion Lumos mass spectrometer (Thermo Fisher Scientific). Peptides were separated by reverse-phase on a 50 cm×75 μm I.D. Acclaim® PepMap RSLC column using gradients of 4% to 25% acetonitrile at a flow rate of 300 nL/min (solvent A: 100% H2O, 0.1% formic acid; solvent B: 100% acetonitrile, 0.1% formic acid) prior to MS^n analysis. For each MS^n acquisition, duty cycles consisted of one full Fourier transform scan mass spectrum (375-1500 m/z, resolution of 60,000 at m/z 400) followed by data-dependent MS^2 and MS^3 acquired at top speed in the Orbitrap and linear ion trap, respectively. Ions detected in MS^1 with 4+ or greater charge were selected and subjected to CID fragmentation (NCE 23%) in MS^2 and resulting ions were detected in the Orbitrap (resolution 30,000). Ions observed in MS^2 spectra with charge 2+ or greater were selected and fragmented in MS^3 using CID (NCE 35%) and detected in the linear ion trap in ‘Rapid’ mode. Ions selected for MS^3 were either based on abundance (top 4 or 5 most intense ions in MS^2) or targeted based on doublets with mass difference pairs (Δ=18.02 Da) corresponding to cross-linker remnant moiety water loss. For 26S proteasome cross-links, each acquisition was 200 min and ion selection for MS^3 was based on top intensity. For SEC-separated F24 fractions, the entire HpHt fraction was injected; for F26 fractions half of the HpHt fraction was injected for each LC-MS^n analysis. Each acquisition was 120 or 150 min, and both top intensity and mass difference-targeted methods were used for selecting ions for MS^3 analysis. […]

Another test concerns the target BSA (Bos taurus, UniProt P02769). Nature of the test: TSTO cross-linking of BSA, LC-MSn. How it is done: The reaction was carried out for 1 h at RT, followed by quenching with ammonium bicarbonate. […] Cross-linked proteins were then digested in 8M urea buffer using LysC for 4 h at 37° C., followed by trypsin digestion at 37° C. overnight after diluting urea concentration to <1.5 M. The resulting peptide mixtures were extracted and desalted using C18 tips (Agilent) prior to MS analyses.
LC-MS^n analysis. LC-MS^n analysis of cross-linked peptides was performed using an UltiMate 3000 UPLC (Thermo Fisher Scientific) liquid chromatograph coupled on-line to an Orbitrap Fusion Lumos mass spectrometer (Thermo Fisher Scientific). Peptides were separated by reverse-phase on a 50 cm×75 μm I.D. Acclaim® PepMap RSLC column using gradients of 4% to 25% acetonitrile at a flow rate of 300 nL/min (solvent A: 100% H2O, 0.1% formic acid; solvent B: 100% acetonitrile, 0.1% formic acid) prior to MS^n analysis. For each MS^n acquisition, duty cycles consisted of one full Fourier transform scan mass spectrum (375-1500 m/z, resolution of 60,000 at m/z 400) followed by data-dependent MS^2 and MS^3 acquired at top speed in the Orbitrap and linear ion trap, respectively. Ions detected in MS^1 with 4+ or greater charge were selected and subjected to CID fragmentation (NCE 23%) in MS^2 and resulting ions were detected in the Orbitrap (resolution 30,000). Ions observed in MS^2 spectra with charge 2+ or greater were selected and fragmented in MS^3 using CID (NCE 35%) and detected in the linear ion trap in ‘Rapid’ mode. Ions selected for MS^3 were either based on abundance (top 4 or 5 most intense ions in MS^2) or targeted based on doublets with mass difference pairs (Δ=18.02 Da) corresponding to cross-linker remnant moiety water loss. For 26S proteasome cross-links, each acquisition was 200 min and ion selection for MS^3 was based on top intensity. For SEC-separated F24 fractions, the entire HpHt fraction was injected; for F26 fractions half of the HpHt fraction was injected for each LC-MS^n analysis. Each acquisition was 120 or 150 min, and both top intensity and mass difference-targeted methods were used for selecting ions for MS^3 analysis.
Spectrometric data were extracted from .raw files using PAVA. Extracted MS^3 spectra were subjected to protein database searching via Batch-Tag within a developmental version of Protein Prospector (v. 6.3.5, University of California, San Francisco) against a randomly concatenated SwissProt database consisting of 20,418 human proteins and their corresponding decoys. Mass tolerances for parent ions and fragment ions were set as ±15 ppm and 0.6 Da, respectively. Trypsin was set as the enzyme with three maximum missed cleavages allowed. Cysteine carbamidomethylation was selected as a constant modification, while protein N-terminal acetylation, methionine oxidation, and N-terminal conversion of glutamine to pyroglutamic acid were selected as variable modifications.

Structures are written as SMILES.

BSA, sequence (P02769 25-607): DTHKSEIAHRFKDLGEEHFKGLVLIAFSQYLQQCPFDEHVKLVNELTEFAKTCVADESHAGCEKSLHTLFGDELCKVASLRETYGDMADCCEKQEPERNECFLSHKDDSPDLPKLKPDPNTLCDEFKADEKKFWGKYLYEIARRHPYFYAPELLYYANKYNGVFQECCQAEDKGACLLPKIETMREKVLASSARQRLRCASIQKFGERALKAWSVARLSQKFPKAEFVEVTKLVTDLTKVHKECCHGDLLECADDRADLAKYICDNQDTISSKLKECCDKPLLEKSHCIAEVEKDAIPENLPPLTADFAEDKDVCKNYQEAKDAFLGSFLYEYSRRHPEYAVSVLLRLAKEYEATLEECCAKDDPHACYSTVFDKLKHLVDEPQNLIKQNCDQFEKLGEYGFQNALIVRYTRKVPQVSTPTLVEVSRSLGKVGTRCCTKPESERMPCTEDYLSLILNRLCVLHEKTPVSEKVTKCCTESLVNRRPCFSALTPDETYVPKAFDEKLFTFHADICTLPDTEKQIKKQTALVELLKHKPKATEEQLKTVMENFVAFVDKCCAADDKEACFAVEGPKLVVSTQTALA

As to `O=C(CCCC1OC(CCCC(=O)ON2C(=O)CCC2=O)OC(CCCC(=O)ON2C(=O)CCC2=O)O1)ON1C(=O)CCC1=O` (centres unmarked) [TSTO, Tris(2,5-dioxopyrrolidin-1-yl) 4,4′,4″-(1,3,5-trioxane-2,4,6-triyl)tributanoate], in the test on human 26S proteasomes (0.75 mM TSTO on-bead), the “share of unique CSMs that were tri-links” value was determined as 41.3%. Also, the “total unique CSMs” value with human 26S proteasomes (0.75 mM TSTO on-bead, PBS pH 7.5, 1 h) stood at 808. Further, in the test on human 26S proteasomes (mapped to PDB: 7QY7), the “satisfaction rates (≤35 Å) of mapped tri-links and bi-links” value was about 90%. In addition, at BSA (1 mM TSTO, pH 7.4 PBS, 1 h RT), the “redundant cross-linked spectra matches (CSMs)” value is recorded as 823 and the “unique CSMs” value came out at 167. Moreover, the “tri-links share of total unique CSMs” value on BSA (45/167) is about 27%. At BSA (mapped to PDB:4F5S), the “overall mapped distance median (Cα-Cα)” value is 21.1 Å and the “satisfaction rate of cross-links ≤35 Å” value is recorded as 90%.
